The series in a line: gradient 5% acetonitrile 3 min, to 50% in 2 min, to 85% in 15 min, held 3 min, 100 µL/min. As to conditions: column: Zorbax Extend-C18 2.1 x 50 mm; eluents: water / acetonitrile, 0.1% formic acid. The procedure, abridged: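 Over 3 months, pure standards in mixtures of ~100 molecules were run by HPLC coupled to a quadrupole time-of-flight mass spectrometer in positive and negative ionization mode. The column was a Zorbax Extend-C18 (2.1 × 50 mm, 1.8 μm) at 100 μL/min, eluted with water and acetonitrile each holding 0.1% formic acid, with 40 μL dead and 900 μL dwell volumes. Retention time was determined from adduct peaks chosen by software and checked manually.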
Consider `O=C(c1ccoc1)N1CCOc2ccc(N3CCOCC3)cc2C1`, for which the RP-LC retention time amounted to 678 s.
To `CC1=C(c2ccc(Cl)cc2)S(=O)(=O)N=C1N1CCCN(C(=O)c2ccsc2)CC1` belongs 843 s; to `O=C(CN1C(=O)C2CCCCN2c2ccc(C(=O)N3CCCC3)cc21)Nc1cccc(Cl)c1` (stereo not given), 676 s.
Take `COc1ccc2[nH]cc(CCNC(=O)C3CCCN(c4nc5ncccc5n5cccc45)C3)c2c1` (stereo not given): the RP-LC retention time is 623 s.
`Cc1ccn2cc(-c3ccc(NC(=O)c4ccccc4C(F)(F)F)cc3)nc2n1` yielded an RP-LC retention time of 664 s.
`Cc1cc(NC(=O)C2CCN(C(=O)COc3ccccc3F)CC2)no1` came in with an RP-LC retention time of 696 s.
As for `O=C(O)c1ccccc1C(=O)Nc1cccc([N+](=O)[O-])c1`, the figure is 776 s; as for `CCOc1ccccc1NC(=O)CSc1cc(N2CCN(c3ccccc3OC)CC2)ncn1`, 1160 s.
To `COc1ccc(S(=O)(=O)N2CCC(CN3CCC(C)CC3)CC2)cc1` belongs 655 s.
`O=C(NCc1ccco1)C1CCCN(c2ncccc2-c2noc(C3CCC3)n2)C1` (stereo not given): the RP-LC retention time came out at 872 s.
`COc1ccc(-c2nc(NC3CCCC3)c3ccccc3n2)cc1` displayed an RP-LC retention time of 825 s.
As for `Cc1ccc(N2C(=O)C3N=NN(Cc4nc(-c5cccc(C)c5)no4)C3C2=O)cc1` (stereo not given), the figure is 1040 s; as for `CC(C)c1ccc(-n2nc(N3CCN(C(=O)CCC(=O)N4CCOCC4)CC3)ccc2=O)cc1`, 695 s.
For `CC(C)(CO)NC(=O)Cc1ccc(NS(=O)(=O)/C=C/c2ccccc2)cc1`, the RP-LC retention time amounted to 686 s.
As for `CCOc1cc(C(=O)Nc2c(-c3ccc(F)cc3)nc3ccccn23)cc(OCC)c1OCC`, the figure is 788 s.
Regarding `Cc1ccc(-c2ncccc2CNS(=O)(=O)c2ccc(C)c(F)c2)cc1`, the RP-LC retention time worked out at 769 s.
As for `CC1CCN(c2ccc(-c3noc(CN4CCN(CC(=O)NC(C)C)CC4)n3)cn2)CC1`, the figure is 646 s.
Take `c1ccc(-c2noc(N3CCN(c4ccccn4)CC3)n2)cc1`: the RP-LC retention time stood at 668 s.
`CC(C)CCNC(=O)C1CCN(c2nc3ccsc3c(=O)n2Cc2ccccc2)CC1` showed an RP-LC retention time of 890 s.
As for `O=C(NCCn1c(-c2ccccc2)nc2cccnc21)Nc1ccccc1`, the figure is 674 s; as for `Cc1cc(C)c(S(=O)(=O)N2CCc3c(c(-c4nnc(-c5ccccc5)o4)nn3C)C2)cc1C`, 1070 s; as for `Cc1csc(-c2ccc(N3CCN(C(=O)c4cc(F)ccc4Cl)CC3)nc2)n1`, 910 s.
As for `COc1ccc(Cl)cc1S(=O)(=O)N1CCCC(C(=O)NCCCOC(C)C)C1` (stereo not given), the RP-LC retention time was 855 s.
With `COCc1nnc2n1CCC(NC(=O)C1CC=CC1)CC2` (stereo not given), the RP-LC retention time is 587 s.
For the compound `COc1cc(Cl)c(C)cc1NC(=O)CN1C(=O)NC2(CCCCC2)C1=O`, the RP-LC retention time was 884 s.
As for `Cc1ccc(NC(=O)c2cn(-c3cc(N(C)C)ncn3)cn2)cc1F`, the figure is 884 s; as for `CCC(C(=O)NCCN1CCN(C)CC1)n1nc(C)c2sc3ccccc3c2c1=O` (stereo not given), 629 s.
On to `Brc1ccc(-c2ccc(CNCC3CCCO3)o2)cc1` (stereo not given), for which the RP-LC retention time was determined as 703 s.
To `O=C(Nc1ccc(F)cc1)C1CC(=O)N(c2n[nH]c3cccc(F)c23)C1` (stereo not given) belongs 740 s.
`Cc1ccc(NC(=O)/C=C/c2ccccc2)c(C)c1` yielded an RP-LC retention time of 913 s.
In the case of `Cc1oc2ccn(Cc3ccccc3F)c(=O)c2c1C(=O)NCc1ccc(F)cc1`, the RP-LC retention time turned out to be 1090 s.
`COc1ccccc1/C=C(\C#N)C(=O)O` gave an RP-LC retention time of 801 s.
With `CC(=O)N1c2ccc(S(=O)(=O)N3CCCC3)cc2CC1C(=O)NCCCN1CCCCCC1` (stereo not given), the RP-LC retention time worked out at 619 s.
As for `CCCN(C)c1nccn2c(=O)n(CC(=O)Nc3ccc(F)c(Cl)c3)nc12`, the figure is 731 s; as for `Cc1ccc(F)cc1S(=O)(=O)N1CCC(n2cnnc2C2CC2)CC1`, 734 s.
As for `CCc1noc2nc(C)n(CC(=O)NCCCc3ccccc3)c(=O)c12`, the figure is 832 s; as for `COC(=O)c1ncn2c1C(=O)N(Cc1ccccc1)C(C)(C(=O)NC1CCCCCC1)C2` (stereo not given), 777 s; as for `Cc1ccccc1N1CCN(S(=O)(=O)c2cc3n(c2)CCCNC3=O)CC1`, 788 s.
To `O=C(c1ccc2c(c1)OCO2)N1CCCN(C(=O)C2CC2)c2ccccc21` belongs 715 s; to `O=C(Nc1cccc([N+](=O)[O-])c1)c1ccc2ccccc2c1O`, 1240 s; to `CCCNC(=O)C1CCN(c2ccc(SCC(=O)Nc3cccc(C)c3C)nn2)CC1`, 642 s.
Compound `O=C(CCCCCN1C(=O)c2cccc3cccc(c23)C1=O)NO` yielded an RP-LC retention time of 694 s.
As for `CCOc1ccc(N2C=C(C(=O)N3CCCC3)S(=O)(=O)c3ccc(Cl)cc32)cc1`, the RP-LC retention time was determined as 930 s.
To `O=C(c1cccc(Br)c1)N1CCC(n2c(-c3ccoc3)nc3cccnc32)C1` (stereo not given) belongs 775 s.
Turning to `O=C(Cn1nc(-c2cccs2)ccc1=O)Nc1nc2c(s1)CCCC2`, the RP-LC retention time came out at 741 s.
`Cc1ccc(S(=O)(=O)N2C[C@@H]3C[C@H](NC(=O)c4cccnc4)[C@H]2C3)cc1C` had an RP-LC retention time of 724 s.
Compound `O=C(C1=CCN(Cc2ccccc2)CC1)N1CCN(c2ccc(F)cc2)CC1` had an RP-LC retention time of 655 s.
To `O=C(CCC1CCCC1)NCCC1CCN(C(=O)Nc2cc(F)cc(F)c2)CC1` belongs 971 s; to `CCC(C)NC(=O)N1CC(Oc2ccc(-c3nc(C)no3)cc2)C1` (stereo not given), 873 s.
As for `Cc1cnc(CC2CCN(S(=O)(=O)c3cccc(F)c3)C2)n1C(C)C` (stereo not given), the figure is 671 s; as for `C[C@](O)(COc1ccc(C#N)cc1)C(=O)Nc1ccc(C#N)c(C(F)(F)F)c1`, 972 s.
In turn, `COc1ccccc1NC(=O)Cc1nnc(-c2ccc3ncccc3c2)o1` returned an RP-LC retention time of 724 s.
In turn, `COc1ccc2c(c1)CCCN2C(N)=Nc1ccc(Cl)cc1` returned an RP-LC retention time of 753 s.
To `Cn1cnc2cc(CNC(=O)c3ccc(C#N)cc3)ccc21` belongs 578 s.
Take `CC(C)(C)c1cc(NC(=O)CSCc2ccccc2)n(CCO)n1`: the RP-LC retention time stood at 772 s.
With `COc1ccccc1-n1ccn(Cc2nc(-c3ccccc3C)no2)c(=O)c1=O`, the RP-LC retention time was 850 s.
As for `CC1CCCCN1CCNC(=O)CN1CCc2ccccc2C1C(=O)N1CCCCC1` (stereo not given), the figure is 617 s; as for `CS(=O)(=O)N1CCC(C(=O)Nc2ccc3c(c2)N(C(=O)C2CCCO2)CC3)CC1` (stereo not given), 631 s.
In turn, `CCC(=O)N1CCc2cc(N3CC(C(=O)Nc4cccc(OC)c4)CC3=O)ccc21` (stereo not given) came in with an RP-LC retention time of 750 s.
To `CCC(C(=O)N1CCN(c2ccc3nnc(-c4ccco4)n3n2)CC1)c1ccccc1` (stereo not given) belongs 727 s; to `O=C(CSCc1ccccc1)NCC#CCN1CCc2ccccc2C1`, 581 s.
To `CCN1C(=O)COc2ccc(-c3noc(-c4ccc(OC)c(OC)c4)n3)cc21` belongs 1020 s; to `Cc1cc(C)cc(NC(=O)N2CCCC2c2nc(-c3ccccc3)no2)c1` (stereo not given), 922 s.
As for `CC1CCN(S(=O)(=O)c2ccc(-c3nnc(C(=O)N4CCCCC4)o3)cc2)CC1`, the figure is 1040 s; as for `Cc1oc(C2CCN(C(=O)NCc3cccc(F)c3)CC2)nc1C(=O)N1CCOCC1`, 903 s; as for `CCCCc1ccc(Nc2nc(C(=O)OCC)nc3ccccc23)cc1`, 1110 s.
In turn, `CCn1cc(-c2ccc(OC)cc2)cc1C(=O)N1CCCC1` displayed an RP-LC retention time of 952 s.
As for `CCN1CCCC1CNC(=O)c1nc(CCS(=O)(=O)c2ccc(OC)cc2)no1` (stereo not given), the figure is 622 s.
As for `Cc1ccc(-c2noc(-c3cccc(S(=O)(=O)N4CCN(c5ccccn5)CC4)c3)n2)cc1`, the figure is 995 s; as for `O=C(Nc1ccc(N2CCN(c3ccccc3)C2=O)nc1)c1ccccc1`, 906 s; as for `COC(=O)c1cnc(N2CCN(C3CCCCC3)CC2)c2ccccc12`, 683 s.
For the compound `COc1ccc(N2C(=O)CCC(C(=O)NCCCN3CCN(C)CC3)C2c2ccc(F)cc2)cc1` (stereo not given), the RP-LC retention time is 526 s.
As for `O=c1c2ccc(Cl)cc2oc2cc(O)cc(O)c12`, the figure is 979 s; as for `COc1ccc2c(c1)-c1nc(NC(=O)c3cccc(Br)c3)sc1CC2`, 1230 s; as for `Cc1ccc(NC(=O)CCCN2C(=O)COc3ccc(C)cc32)c(C)c1`, 929 s.
Compound `OCCN1CCN(CC(O)COc2ccc3c(c2)CCC3)CC1` (stereo not given) had an RP-LC retention time of 553 s.
`COc1ccc(-c2nnc(Cc3nc(-c4cccc(F)c4)no3)o2)cc1OC` yielded an RP-LC retention time of 911 s.
As for `CCC(C)NC(=O)N1CCN(Cc2nc3cc(C(=O)N(CC)CC)ccc3o2)CC1` (stereo not given), the figure is 619 s; as for `CNC(=O)N1CCCC(c2cccc(C(=O)N3CCN(c4ccccc4F)CC3)c2)C1` (stereo not given), 834 s; as for `CCC(C)N(CC(=O)N1CCc2sccc2C1COc1ccc(Cl)cc1)C(=O)COC` (stereo not given), 955 s.
